Experimental data from patent EP2128622A1, “Means and methods for diagnosing metastasising potentials of tumor cells” (DKFZ Deutsches Krebsforschungszentrum, priority 2008, dated 2009).
Numbered stars: 1 amine (or outer) side, 2 acyl side, 3 side chain; on linkers, the order of the positions; unused ones are H or OH. Bridge positions count the residues as written; N and C are the ends. Square brackets hold non-standard residues; d marks the D form. Peptide text beside a SMILES is read from it. I, II: the chains in the order shown. Actinocin(9to1) = Cc1c2oc3c(C)ccc(C(=O)[*:1])c3nc-2c(C(=O)[*:2])c(N)c1=O; NMeV = CN[C@H](C(=O)O)C(C)C; Sar = CNCC(=O)O

What was measured:
[1] = test system: HaCaT cells; assay: Migration assay (scratch assay, model for wound healing); format: cell-based, human
Description: Using a human keratinocyte cell line (HaCaT) in a Scratch-Assay as a model for wound healing, different model-predicted points of interference were tested. First it was confirmed that HGF-induced migration predominantly depends on a transcriptional response.
Immortalized human keratinocytes (HaCaT cells) were cultured in monoculture with DMEM (10% FCS, 100 U/ml penicillin, 100 µg/ml streptomycin). Subsequently, the cell monolayer was damaged with a 'scratch' using a pipette tip and cells were treated with 5 µg/ml mitomycin c (Sigma-Aldrich) for three hours before stimulation. Cells were stimulated at indicated time points and periods with cytokines and/or inhibitors: 10 ng/ml HGF, (R&D Systems), 1 ng/ml EGF (R&D Systems), 150 nM Tyrphostin AG1473 (Biomol) (EGF-R inhibitor) or 1 µM GW 2974 (Sigma) (EGF-R inhibitor), […] Meloxicam (Biomol) (PTGS-2 inhibitor), 0.5 µM H-89 (Calbiochem) (PKA inhibitor) or 10 µM Myristoylated PKI (14-22) amide, cell-permeable PKA inhibitor (Biomol), 200 µM 8-(4-Chlorophenylthio)adenosine 3',5'-cyclic monophosphate sodium salt (Sigma) (PKA activator) and incubated for further 30 hours. Relative migratory activity was determined by measuring migration distance during culture using standard protocols.

[2] = test system: HaCaT cells; assay: MTT-viability assay; format: cell-based, human; conditions: under Actinomycin D treatment; data not shown

**Q.** `Nc1ncnc2c1nc(Sc1ccc(Cl)cc1)n2[C@@H]1O[C@@H]2COP(=O)([O-])O[C@H]2[C@H]1O.[Na+]` [8-(4-Chlorophenylthio)adenosine 3',5'-cyclic monophosphate sodium salt] was tested. Which “HGF-induced HaCaT migration” value ([1]; Fig. 6C, 200 µM added at different time points with respect to HGF pulse stimulation (10 ng/ml for 1.5h)) did it give?
**A.** Its value is “strongly decreases”.

**Q.** Which HGF-induced migration ([1]; Fig. 6C, 0.5 µM at the time of HGF stimulation) does the source give for `O=S(=O)(NCCNC/C=C/c1ccc(Br)cc1)c1cccc2cnccc12` [H-89] here?
**A.** The HGF-induced migration was “slightly increases migration”.

**Q.** What about the “development of a migratory response” value ([1]; Fig. 6C, 0.5 µM directly after HGF pulse stimulation (1.5 h)) of the same compound?
**A.** Its value is “does not alter development of a migratory response”.

**Q.** And the further migration ([1]; Fig. 6C, PKA inhibition after 22 h, when cells already developed a full migratory response)?
**A.** Its further migration is “delays further migration”.

**Q.** With `CN(C)c1cc2c(Nc3ccc4c(cnn4Cc4ccccc4)c3)ncnc2cn1` [GW2974] as the compound, how does the HGF-induced migration ([1]; Fig. 3G, 1 µM GW 2974 simultaneous to 10 ng/ml HGF, 30 h) read?
**A.** The HGF-induced migration was “abolish HGF-induced migration”.

**Q.** With `Cc1c2oc3c(C)ccc(C(=O)N[C@@H]4C(=O)N[C@H](C(C)C)C(=O)N5CCC[C@H]5C(=O)N(C)CC(=O)N(C)[C@@H](C(C)C)C(=O)O[C@@H]4C)c3nc-2c(C(=O)N[C@@H]2C(=O)N[C@H](C(C)C)C(=O)N3CCC[C@H]3C(=O)N(C)CC(=O)N(C)[C@@H](C(C)C)C(=O)O[C@@H]2C)c(N)c1=O` [Actimocyin D, Actinomycin D] (I: T[dV]P[Sar][NMeV] / II: T[dV]P[Sar][NMeV]; ester I:1-I:C, II:1-II:C; linker I:N-II:N via Actinocin(9to1)) as the compound, how does the “migratory response to HGF” value ([1]; Fig. 2B, prolonged incubation (30 h) with 10 ng/ml recombinant human HGF plus Actinomycin D 5 µg/ml) read?
**A.** The value was “abolished any migratory response to HGF”.

**Q.** What about the cell viability [2] of the same compound?
**A.** The cell viability was “still viable”.
